The values below come from ChEMBL document CHEMBL3352172, “Discovery of S-adenosyl-L-homocysteine hydrolase inhibitors based on non-adenosine analogs” (Bioorg Med Chem Lett, 2014).

This experiment addresses Adenosylhomocysteinase (Homo sapiens, UniProt P23526). The experiment in a line: Inhibition of human recombinant S-adenosyl-L-homocysteine hydrolase assessed as AdoHcy hydrolysis activity by HPLC analysis.

Adenosylhomocysteinase, sequence (P23526 whole entry): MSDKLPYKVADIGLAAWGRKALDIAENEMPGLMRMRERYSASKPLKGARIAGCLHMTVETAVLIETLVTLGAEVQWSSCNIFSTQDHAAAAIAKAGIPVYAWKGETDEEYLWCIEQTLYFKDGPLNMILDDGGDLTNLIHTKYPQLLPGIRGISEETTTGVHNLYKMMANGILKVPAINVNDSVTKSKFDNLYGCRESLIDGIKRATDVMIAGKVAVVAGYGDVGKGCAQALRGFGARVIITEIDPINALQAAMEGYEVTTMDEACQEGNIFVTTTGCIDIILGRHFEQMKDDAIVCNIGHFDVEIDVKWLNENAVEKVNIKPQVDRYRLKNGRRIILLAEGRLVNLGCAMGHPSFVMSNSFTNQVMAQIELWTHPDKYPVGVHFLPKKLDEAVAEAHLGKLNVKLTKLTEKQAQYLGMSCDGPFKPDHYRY

For `O=C(CN(CC(=O)N1CCc2ccccc2C1)c1cc(Cl)ccc1Oc1ccc(Cl)cc1)NCCN1CCCC1`, the IC50 is 17 µM.

Consider `CN(C(=O)CN(CC(=O)NC1CCNC1)c1cc(Cl)ccc1Oc1ccc(Cl)cc1)C1Cc2ccccc2C1` (configuration not stated), for which the IC50 was 1.5 µM.

Take `O=C(CN(CC(=O)N1CCC(c2ccccc2)CC1)c1cc(Cl)ccc1Oc1ccc(Cl)cc1)NCCN1CCCC1`: the IC50 came to 0.97 µM.

For `O=C(CN(CC(=O)N1Cc2ccccc2C1)c1cc(Cl)ccc1Oc1ccc(Cl)cc1)NCCN1CCCC1`, the IC50 is more than 100 µM.

Regarding `O=C(CN(CC(=O)NC1Cc2ccccc2C1)c1cc(Cl)ccc1Oc1ccc(Cl)cc1)NCCN1CCCC1`, the IC50 amounted to 11.4 µM.

Take `CN(C(=O)CN(CC(=O)NC1CCCNC1)c1cc(Cl)ccc1Oc1ccc(Cl)cc1)C1Cc2ccccc2C1` (configuration not stated): the IC50 turned out to be 1.2 µM.

Take `CN(C(=O)CN(CC(=O)NCCN1CCCC1)c1cc(Cl)ccc1Oc1ccc(Cl)cc1)C1CCNCC1`: the IC50 was more than 100 µM.
